“And” between values parts separate entries of the source, which are not always exact repeats. Equal entries are not always repeated.

This note sets out measurements from the Deep4Chem optical property database.

The nature of this data set: solvent given as SMILES.

Take `COc1ccc2c3c(c4ccc(OC)cc4c2c1)=[N+]1C(=C(c2c(C)cc(C)cc2C)c2cc4c5ccc(OC)cc5c5cc(OC)ccc5c4n2[B-]1(F)F)C=3`: the emission maximum was found to be 700 nm (in C1CCCCC1); 712 nm (in C1CCOC1); 712 nm (in CC#N); 712 nm (in Cc1ccccc1); 711 nm (in ClCCl).

As to `CCOC(=O)c1ccccc1-c1c2ccc(=[N+](CC)CC)cc-2oc2c1oc1cc(N)ccc12`, the emission maximum runs as follows: (in CCO) 640 nm; (in ClCCl) 627 nm; (in O) 645 nm.

For the compound `COc1ccc(-c2c3nc(cc4ccc([nH]4)c(-c4ccc(OC)c(OCCCC(=O)O)c4)c4nc(cc5ccc2[nH]5)C=C4)C=C3)cc1OCCCC(=O)O`, the emission maximum (in CS(C)=O) is listed as 639 nm.

On to `CC(C)(C)c1ccc2c(c1)c1cc(C(C)(C)C)ccc1n2-c1ccc(S(=O)(=O)c2ccc(-n3c4ccc(C(C)(C)C)cc4c4cc(C(C)(C)C)ccc43)nc2)cn1`, for which the emission maximum (in Cc1ccccc1) is on record as 444.37 nm and the emission maximum (in O=P(c1ccccc1)(c1ccccc1)c1ccc2sc3cccc(P(=O)(c4ccccc4)c4ccccc4)c3c2c1) was 467 nm.

As to `Nc1ccccc1C(=O)O`, the emission maximum is, setting by setting: (in C1CCCCC1) 387 nm; (in C1COCCO1) 395 nm; (in CC#N) 397 nm; (in CC(C)=O) 394 nm; (in CCO) 407 nm; (in CO) 406 nm. In addition, the emission maximum reads like this: (in CS(C)=O) 400 nm; (in O) 400 nm and 397 nm; (in OCC(F)(F)F) 423 nm; (in c1ccccc1) 394 nm.

Compound `Cc1ccc2c(c1)c1cc(C)ccc1n2-c1cccc(-n2c3ccc(C)cc3c3cc(C)ccc32)c1C#N` displayed an emission maximum (in Cc1ccccc1) of 417 nm and an emission maximum (in O=P(c1ccccc1)(c1ccccc1)c1ccccc1Oc1ccccc1P(=O)(c1ccccc1)c1ccccc1) of 432 nm.

The compound `O=C(O)c1ccc(-c2nc(-c3ccccc3)c(-c3ccccc3)[nH]2)cc1` registered an emission maximum (in CO) of 414.5 nm.

In turn, `CCOC(=O)CCCCCn1c2ccc([N+](=O)[O-])cc2c(=O)c2cc3c(cc21)c(=O)c1cc([N+](=O)[O-])ccc1n3CCCCCC(=O)OCC` came in with an emission maximum (in ClCCl) of 553 nm.

Compound `CN(C)c1ccc(/C=C/c2ccncn2)cc1` came in with an emission maximum (in ClCCl) of 488 nm.

For the compound `Cc1ccc(C2=CC(c3ccc(C)cc3)=[N+]3C2=Nc2c(-c4ccc(C)cc4)cc(-c4ccc(C)cc4)n2[B-]3(F)F)cc1`, the emission maximum (in ClC(Cl)Cl) is reported as 697 nm.

In the case of `CCCCC1(c2ccc(OC)cc2)Nc2ccccc2N=C1c1ccc(OC)cc1` (stereo not given), the emission maximum reads like this: (in C1CCOC1) 513 nm; (in CC#N) 522 nm; (in CCCCCC) 485 nm; (in CN(C)C=O) 525 nm; (in Cc1ccccc1) 501 nm; (in ClC(Cl)Cl) 507 nm.

Take `CC(C)(C)c1cc(-c2c3cc(c(-c4cc(C(C)(C)C)cc(C(C)(C)C)c4)c4ccc([nH]4)c(-c4ccc([N+](=O)[O-])cc4)c4nc(c(-c5ccc([N+](=O)[O-])cc5)c5ccc2[nH]5)C=C4)N=C3)cc(C(C)(C)C)c1`: the emission maximum (in ClCCl) is recorded as 741 nm.

In the case of `BrCCCCCCCCCCCCOc1cc2ccc3cccc4ccc(c1)c2c34`, the emission maximum (in Cc1ccccc1) is 384 nm.

As to `O=c1oc2ccccc2cc1-c1nc2ccccc2o1`, the emission maximum by setting is: (in C1CCOC1) 444 nm; (in C1COCCO1) 443 nm; (in CC1CCCCC1) 438 nm; (in CC#N) 443 nm; (in CC(C)=O) 444 nm; (in CC(C)CO) 445 nm. The emission maximum by setting is: (in CC(C)O) 444 nm; (in CCOC(C)=O) 443 nm; (in CN(C)C=O) 445 nm; (in CO) 440 nm; (in CS(C)=O) 453 nm; (in Cc1ccccc1) 445 nm. The same compound showed an emission maximum (in ClC(Cl)(Cl)Cl) of 444 nm, an emission maximum (in ClC(Cl)Cl) of 443 nm and an emission maximum (in OCCO) of 447 nm.

With `CC(C)(C)c1ccc2oc3nc4oc5ccc(-n6c7ccccc7c(=O)c7ccccc76)cc5c4cc3c2c1`, under “in ClC(Cl)Cl”, the emission maximum amounted to 409 nm.

Consider `Cc1cc(-c2nc(-c3ccccc3)nc(-c3ccccc3)n2)cc(C)c1N1c2ccccc2CCc2ccccc21`, for which the emission maximum (in Cc1ccccc1) was 475.79 nm.

For the setting “in CC#N”, `CCN(CC)c1ccc(/C=N/C(C#N)=C(C#N)\N=C\c2ccc(N(CC)CC)cc2O)c(O)c1` displayed an emission maximum of 606 nm.

The compound `COc1ccc(C(=O)/C=C2\C(=O)Nc3ccccc32)cc1` showed an emission maximum (in C1COCCO1) of 373 nm; an emission maximum (in CC#N) of 372 nm; an emission maximum (in CC(C)(C)O) of 381 nm; an emission maximum (in CC(C)O) of 378 nm; an emission maximum (in CCCCO) of 378 nm; an emission maximum (in CCOC(C)=O) of 375 nm. Also, the emission maximum runs as follows: (in CN(C)C=O) 375 nm; (in CO) 380 nm; (in ClCCl) 411 nm; (in O) 407 nm.

Consider `Cc1cc(C)c(C2=C3C=C(/C=C/C(=O)OCc4ccccc4)C=[N+]3[B-](F)(F)n3cc(/C=C/C(=O)OCc4ccccc4)cc32)c(C)c1`, for which the emission maximum (in ClCCl) turned out to be 604 nm.

Turning to `COc1ccc(-c2c3ccccc3c(C#Cc3ccccc3)c3ccccc23)cc1`, the emission maximum (in ClCCl) worked out at 452 nm.

Where the note is “in ClC(Cl)Cl”, `CC(=C(C#Cc1ccccc1)C#Cc1ccccc1)c1ccc(C(C)=C(C#Cc2ccccc2)C#Cc2ccccc2)cc1` showed an emission maximum of 454 nm.

With `O=C1OC(c2ccccc2)=C/C1=C\c1ccc([N+](=O)[O-])cc1`, the emission maximum (in C1COCCO1) was found to be 518 nm.

With `CCN(CC)c1ccc2c(-c3ccccc3C(=O)O)c3c([o+]c2c1)/C(=C/c1ccc(N(C)C)cc1)CCC3`, the emission maximum (in ClCCl) is on record as 757 nm.

For the setting “in CCO”, `Cc1c(C)n2c(COC(=O)c3ccccc3O)c(C)c(=O)n2c1=O` displayed an emission maximum of 465 nm.

In the case of `CCCCC(CC)CN1C(=O)c2cc(Oc3ccc(OC)cc3)c3c4c(Cl)cc5c6c(cc(Cl)c(c7c(Oc8ccc(OC)cc8)cc(c2c37)C1=O)c64)C(=O)N(c1c(C(C)C)cccc1C(C)C)C5=O` (stereo not given), under “in Cc1ccccc1”, the emission maximum came to 614 nm.

`c1ccc2cc3cnccc3cc2c1` yielded an emission maximum (in CCO) of 426.44 nm.

For `C1=Cc2ccccc2C(=Cc2ccc(C=C3c4ccccc4C=Cc4ccccc43)cc2)c2ccccc21`, the emission maximum (in C1CCOC1) was 405 nm.

In the case of `COc1ccc(/C=C/c2nc(N3CCOCC3)c3c([n+]2[O-])CCCC3)cc1`, under “in ClCCl”, the emission maximum is 533 nm.

The compound `CCCCOc1ccc(/C=C/C2=[N+]3C(=C(c4ccc(I)cc4)c4c(/C=C/c5ccc(N(C)C)cc5)cc(/C=C/c5ccc(OC)cc5)n4[B-]3(F)F)C(/C=C/c3ccc(OCCOCCOC)cc3)=C2)cc1` registered an emission maximum (in C1COCCO1) of 714 nm.

In turn, `COC(=O)C1=C(C(=O)OC)C2(c3ccccc3-c3c(Br)cc(Br)cc32)C2(/C=C/c3ccc(Cl)cc3)c3cc(OC)c(OC)cc3CCN12` (stereo not given) had an emission maximum (in ClCCl) of 520 nm.

`COc1ccc2cc(-c3ccc(C)cc3)c(=O)oc2c1`: the emission maximum by setting is: (in C1CCOC1) 424 nm; (in CCCCCC) 414 nm; (in CCO) 429 nm; (in CS(C)=O) 431 nm.

With `CCN(CC)c1ccc(/N=N/c2nc3ccc(OC)cc3s2)cc1`, the emission maximum is, setting by setting: (in CC#N) 583 nm; (in ClCCl) 574 nm.

With `CC[N+](CC)=c1ccc2cc3c(=O)oc4cc5c(cc4c3oc-2c1)CCCN5C`, the emission maximum is 648 nm (in ClCCl) and 658 nm (in O).

For the compound `C[Si]1(C)c2cc(-c3ccc(-c4cccs4)s3)ccc2C=Cc2ccc(-c3ccc(-c4cccs4)s3)cc21`, where the note is “in ClCCl”, the emission maximum was 463 nm.

`O=C1c2ccc3c4ccc5c6c(ccc(c7ccc(c2c37)C(=O)N1c1ccncc1)c64)C(=O)N(c1ccncc1)C5=O` had an emission maximum (in C1CCOC1) of 570 nm; an emission maximum (in C1COCCO1) of 572 nm; an emission maximum (in CC(C)=O) of 570 nm; an emission maximum (in CC(C)O) of 572 nm; an emission maximum (in CCCCO) of 570 nm; an emission maximum (in CCO) of 569 nm. For the same compound, the emission maximum stood at 567 nm (in CCOC(C)=O); 574 nm (in CN(C)C=O); 569 nm (in CO); 580 nm (in CS(C)=O); 573 nm (in ClC(Cl)(Cl)Cl); 576 nm (in ClC(Cl)Cl).

For `COc1cc(-c2ncc(-c3ccncc3)o2)cc(OC)c1OC`, the emission maximum (in ClCCl) stood at 417 nm.

For `CC(C)[Si](C#CC1=CC2=c3cc(C#C[Si](C(C)C)(C(C)C)C(C)C)c4nc(C(F)(F)C(F)(F)C(F)(F)F)nc5c(C#C[Si](C(C)C)(C(C)C)C(C)C)cc(c3c54)C3=CC(C#C[Si](C(C)C)(C(C)C)C(C)C)=C4N=C(C(F)(F)C(F)(F)C(F)(F)F)N=C1C4C32)(C(C)C)C(C)C` (stereo not given), the emission maximum (in C1CCOC1) is 525 nm.

Compound `CC1(C)C(=O)C=Cc2ccc(N)cc21` displayed an emission maximum (in O) of 526 nm.

For the setting “in ClC(Cl)Cl”, `CC(C)(C)c1ccc2oc3nc4oc5ccc(N6c7ccccc7Oc7ccccc76)cc5c4cc3c2c1` returned an emission maximum of 491 nm.

Consider `OC1(c2ccc(-c3cccs3)s2)CCCCC1`, for which the emission maximum (in C1CCOC1) amounted to 458 nm; the emission maximum (in CC#N) worked out at 466 nm; the emission maximum (in CCCCCC) worked out at 465 nm; the emission maximum (in CCO) is reported as 465 nm; the emission maximum (in OCCOCCO) was 447 nm; the emission maximum (in c1ccncc1) was determined as 475 nm.

In the case of `COc1cc(-c2cc(-c3ccc(C)cc3)nc3c(C#N)c(N4CCCC4)nc(N)c23)cc(OC)c1OC`, the emission maximum by setting is: (in CC#N) 525 nm; (in CC(C)=O) 521 nm; (in CC(C)O) 513 nm; (in CO) 526 nm; (in ClC(Cl)Cl) 509 nm; (in ClCCl) 515 nm. Under “in c1ccccc1”, this compound registered an emission maximum of 508 nm.

Compound `COc1ccc(C#Cc2c3ccccc3c(C#Cc3ccc(OC)cc3)c3ccccc23)cc1` gave an emission maximum (in ClCCl) of 492 nm.

For `CCN(CC)c1ccc2cc(-c3nc4cc(C(=O)Nc5ccc(C)cc5[N+](=O)[O-])ccc4o3)c(=O)oc2c1`, for the setting “in ClCCl”, the emission maximum amounted to 496 nm.
